Reference: patent US4859468A, “Compositions and method for decomposing adipose tissue” (Senju Pharmaceutical Co., Ltd., priority 1985, dated 1989)

Test system: free fat cell
Experiment: Activity on the adrenaline's decomposing action on free fat cell (free fatty acid liberation with adrenaline)
Assay type: cell-based, male Wister rat
Conditions: adrenaline 0.5 μg/ml alone
Procedure: Eight grams of fat tissue at epididymis of male Wister rat (body weight 150-200 g) was sliced and was added into 20 ml of a Krebs-Ringer phosphoric acid buffer solution (pH 7.4) (hereinafter referred to as KRP buffer solution) containing 20 mg of glucose, 4% of bovine serum albumin and 20 mg of collagenase. The mixture was incubated at 37° C. for 50 min, and after filtration with nylon mesh, was centrifuged at 500 rpm for 30 sec; then, any portion that was not the fat cell layer was sucked out. The fat cell layer was washed twice with the KRP buffer solution and then diluted to 20 ml by addition of the KRP buffer solution. To 0.25 ml of this suspension, 0.5 ml of KRP buffer solution containing 5% of bovine serum albumin and 0.1 ml of the liquids to be tested or KRP buffer solution as control were added; these mixtures were incubated at 37° C. for 2 hr and the freed fatty acids were assayed by Dole's method (V. P. Dole, J. Clin. Invest., 35, 150 (1956)).

## CNCC(O)c1ccc(O)c(O)c1 (stereo not shown) [adrenaline]
  action of adrenaline on free fat cell (in words): free fatty acid is freed
